Source: patent publication EP4198025A1, “BENZIMIDAZOLE DERIVATIVES FOR THE TREATMENT AND PROPHYLAXIS OF INFECTIOUS DISEASES” (Eberhard Karls Universität Tübingen Medizinische Fakultät, priority 2021, dated 2023)
Like-named read-outs stand apart in the source and are kept apart here.

Key:
SurA [1] = target: T1, SurA (Escherichia coli, UniProt P0ABZ6); assay: biochemical; assay type: biochemical, E. coli
From the text: The biological function of SurA is to bind and to keep outer membrane proteins that have reached the periplasm in an unfolded but folding-competent state. The inventors' assay is based on this interaction and uses firefly Luciferase (fLuc) as a non-native substrate. […] The loss of tertiary structure of fLuc leads to the exposure of binding sites for SurA. It is known that SurA binds selectively to a special group of substrates. These substrates have in common the specific patterns of hydrophobic amino acids that are highly enriched in the beta strands of integral outer membrane proteins. These motifs are present in OMPs of all Gram-negative bacteria and in fLuc as well. Upon mild heat treatment of fLuc and its subsequent partial unfolding, fLuc is accepted as a substrate by SurA. Of note, these intermediates served as reporter substrates to determine the activity of a cytoplasmic folding chaperone. […] This interaction remains stable upon temperature reduction. Next, the temperature of the assay is reduced to room temperature and luciferase activity is subsequently measured by addition of Luciferin and ATP. In conditions without SurA, fLuc will refold into its active conformation resulting in a luminescence signal.
Of note, the SurA activity assay was performed similar at the ELF but with optimizations in regard of the higher throughput including the change of the plate format to 1536-wells. The SurA activity assay performed at the ELF contained the following steps (adapted from the QHL report provided by the ELF). First, SurA was thawed at RT and heat activated in a water bath. Next, the vial was taken out of the water bath and cooled down to RT for 30 min @ bench. […] Noteworthy, the SurA solution was kept on ice. 15 nL of 4 mM compound in DMSO were added to columns 9-48 with Echo acoustic nano-dispenser (ECHO). Additionally, 15 nL 100% DMSO were transferred to columns 1-8 with ECHO. […] The plate was spun for 60 seconds at 1000 rpm to ensure proper fluid localization at the bottom of the wells. […] Again, the plate was centrifuged for 60 seconds at 1000 rpm. […] To allow refolding of the luciferase, the plate was incubated 30 minutes at RT.

firefly Luciferase = firefly Luciferase (Photinus pyralis, UniProt P08659); assay: Luciferase interference deselection assay (D1) at the ELF; assay type: biochemical
Experimental: The confirmed actives of ELF program ELFSC17_02 were tested as serial dilutions in the primary assay and deselection assay to generate dose response curves (DRCs). The serial dilutions consisted of 7 equidistant concentration steps (20 µM to 27.4 nM) and were tested in the primary and in the deselection assay in duplo (n=2) in 1536-well format. […] For the luciferase interference deselection assay in DRC-format, luciferase was left out in the Max effect wells, mimicking a 100% effect situation and resulting in a decreased signal. Compounds showing a signal decrease larger than 5 times the standard deviation (Z-score > 5) were identified as luciferase inducer. […] The ActivityBase application (IDBS) was used to analyze the data and to calculate quality parameters like Z-prime and Signal to Background ratio (S/B). For all compounds the % effect was calculated for all seven concentrations. ActivityBase was also used to calculate the pEC50 and Hill Slope. […] For compounds where no curve was fitted but reached >50% effect at 20 µM the Fit_Max was locked at 100% effect. For compounds where no curve was fitted but reached 100% effect at 20 µM and descended to <50% at 27 nM the Fit_Min was locked at 0%.

SurA [2] = target: T1, SurA; assay type: binding, E. coli; design: key: An increase of the inflection points in the nanoDSF experiments is indicated by (+); a decrease by (-); no changes with (none); ambiguity with a question mark (?); conditions: 100 µM compound, 2 µM SurA, 40 mM HEPES pH 7.4
Experimental: Nano Differential Scanning Fluorimetry (nanoDSF) measurements of the QHL (qualified hit list) compounds provided by the ELF were performed on a Tycho system (NanoTemper).

SurA [3] = target: T1, SurA; assay: biochemical; assay type: binding, E. coli
Experimental: His-tagged SurA was labeled with the Monolith His-Tag Labeling Kit RED-tris-NTA (Nanotemper) according to the manufacturer's instructions.
Microscale thermophoresis measurements were performed in 40 mM HEPES pH 7.4, 0.05 % Tween-20 at 25°C with a Monolith NT.115 (NanoTemper) in standard capillaries.

SurA [4] = target: T1, SurA; assay type: biochemical, E. coli; design: key to primary assay SurA: SurA inhibition = +; no SurA inhibiton = 0
From the text: The biological function of SurA is to bind and to keep outer membrane proteins that have reached the periplasm in an unfolded but folding-competent state. The inventors' assay is based on this interaction and uses firefly Luciferase (fLuc) as a non-native substrate. […] This is exploited in the assay (Figure 3). The loss of tertiary structure of fLuc leads to the exposure of binding sites for SurA. It is known that SurA binds selectively to a special group of substrates. These substrates have in common the specific patterns of hydrophobic amino acids that are highly enriched in the beta strands of integral outer membrane proteins. These motifs are present in OMPs of all Gram-negative bacteria and in fLuc as well. Upon mild heat treatment of fLuc and its subsequent partial unfolding, fLuc is accepted as a substrate by SurA. Of note, these intermediates served as reporter substrates to determine the activity of a cytoplasmic folding chaperone. […] This interaction remains stable upon temperature reduction. Next, the temperature of the assay is reduced to room temperature and luciferase activity is subsequently measured by addition of Luciferin and ATP. In conditions without SurA, fLuc will refold into its active conformation resulting in a luminescence signal. […] In the case of presence of a SurA inhibitor (Figure 3 B), fLuc will adopt an active conformation resulting in an increased luminescence signal compared to conditions without SurA inhibition.
In short, the Luciferase based SurA activity assay was performed in SurA Activity Assay Buffer (40 mM HEPES pH 7.4, 20 mM MgSO4, 0.5 g/l BSA). SurA aliquots were thawn at RT, activated by mild heat treatment and cooled down to RT for 10 min. SurA concentration was adjusted to 1.6 µM in Activity Assay Buffer (protein solution). […] Subsequently, the assay plate was cooled for 5 min at 4°C followed by 10 min incubation at RT prior to luminescence measurement. Luminescence was measured in a TECAN infinite M200 pro plate reader for each well individually after injection of 10 µl Solution A.

E. coli ATCC 25922 = assay: Minimal inhibitory concentration assay / Vancomycin sensitizer MIC assay; assay type: cell-based; conditions: Escherichia coli, ATCC25922
From the text: The intended effect of a SurA inhibitor should be the induction of a disturbance of the outer membrane composition resulting in an increased susceptibility to antibiotic treatment. Of note, Vancomycin is typically not used to treat infections with Gram-negative bacteria, because it is excluded by the OM and not efficient at concentrations that could be achieved in patients. However, at appropriate dosing in vitro it can be used to detect outer membrane defects. For determining a potential sensitizing effect of Vancomycin treatment, the inventors first tested whether the compounds at hand were bactericidal per se. Therefore, the inventors performed a minimal inhibitory concentration (MIC) assay. To this end, 5 ml overnight cultures of E. coli BW25113 (Keio-Collection reference strain), E. coli JW2496-3 (Keio-Collection single gene knockout for bamB, which suffers from decreased outer membrane integrity) and E. coli ATCC 25922 (a reference strain recommended for antibiotic susceptibility testing) were grown in Mueller Hinton Broth, Cation adjusted (MHB-II). […] After o/n incubation, bacterial growth was quantified by measuring the optical density at 600 nm wavelength in a multiplate reader. […] Of note, the bactericidal effect of Vancomycin was assessed similarly for each test strain using Vancomycin concentrations ranging from 512 - 0.25 mg/ml. […]

SurA [5] = target: T1, SurA; assay type: binding, E. coli; design: key to nanoDSF pH 5 Ti#1 / nanoDSF pH 5 Ti#2 / nanoDSF pH 7.4 Ti#1 / nanoDSF pH 7.4 Ti#2: An increase of the inflection points in the nanoDSF experiments is indicated by (+); a decrease by (-); no changes with (none); ambiguity with a question mark (?)
Experimental: To this end, 5 µl of a 2 mM compound solution in DMSO were mixed with 95 µl of a 20 µM SurA solution. Technical triplicate measurements were performed on a Prometheus system (NanoTemper).

[6] = Solubility estimate based on turbidity (OD600nm); assay type: physicochemical
From the text: The activity in the primary assay is distinguished into influence on SurA (SurA inhibition = +; no SurA inhibiton = 0) or interference with Luciferase per se (no influence on Luc activity = 0; enhances Luc activity = +; reduces Luc activity = -).

HepG2 cells = assay: Cytotoxicity assay, LDH release; assay type: cell-based; conditions: 500 µM compound
Experimental: Cell cytotoxicity was evaluated monitoring the LDH release from HepG2 cells using the CytoTox 96® Non-Radio Cytotoxicity Assay (Promega) according to the manufacturer's instructions. […] After incubation, 25 µl were transferred into a fresh 96-well flat clear bottom plate and mixed with 25 µl CytoTox 96® Reagent. LDH release reactions were incubated 30 min at RT in the dark and 25 µl Stop Solution were added. LDH release was measured at 490 nm in a multiplate reader.

Luciferase = Luciferase (Photinus pyralis, UniProt P08659); assay: Primary assay buffer control without SurA: interference with Luciferase per se; assay type: biochemical, firefly; design: key: no influence on Luc activity = 0; enhances Luc activity = +; reduces Luc activity = -
Experimental: In short, the Luciferase based SurA activity assay was performed in SurA Activity Assay Buffer (40 mM HEPES pH 7.4, 20 mM MgSO4, 0.5 g/l BSA). SurA aliquots were thawn at RT, activated by mild heat treatment and cooled down to RT for 10 min. SurA concentration was adjusted to 1.6 µM in Activity Assay Buffer (protein solution). Solution A containing 10 mM ATP as well as 0.3 mM Luciferin (Promega Beetle Luciferin, Potassium Salt) in water was prepared. Luciferase working solution was prepared by diluting 1 ml Luciferase working stock (100 nM) with 9 ml assay buffer. 33 µl of the protein solution were added to every 2nd row of a well of a 384-well PS, white, flat bottom plate. […] Subsequently, 2 µl of compound in DMSO were added in quadruplicates (4 wells each of protein solution and buffer controls). These compound solutions could contain either various compounds or different dilutions of the same compound allowing screening inhibitor activity in a dose dependent manner. After compound addition, plates were incubated 15 min at RT. After this incubation, 5 µl of Luciferase working solution were added to each well. […] Subsequently, the assay plate was cooled for 5 min at 4°C followed by 10 min incubation at RT prior to luminescence measurement. Luminescence was measured in a TECAN infinite M200 pro plate reader for each well individually after injection of 10 µl Solution A. […]

T1 sequence (P0ABZ6 21-428): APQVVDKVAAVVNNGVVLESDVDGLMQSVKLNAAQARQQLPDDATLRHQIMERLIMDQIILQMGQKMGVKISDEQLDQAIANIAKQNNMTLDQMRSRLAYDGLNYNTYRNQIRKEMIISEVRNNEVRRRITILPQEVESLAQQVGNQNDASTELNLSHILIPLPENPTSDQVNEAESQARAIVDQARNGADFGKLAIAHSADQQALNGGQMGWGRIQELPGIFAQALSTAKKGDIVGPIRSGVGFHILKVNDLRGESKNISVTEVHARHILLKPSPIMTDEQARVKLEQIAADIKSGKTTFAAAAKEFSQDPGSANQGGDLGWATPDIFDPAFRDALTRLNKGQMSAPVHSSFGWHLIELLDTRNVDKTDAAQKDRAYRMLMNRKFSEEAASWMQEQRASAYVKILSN
Sequence of firefly Luciferase (P08659 whole entry): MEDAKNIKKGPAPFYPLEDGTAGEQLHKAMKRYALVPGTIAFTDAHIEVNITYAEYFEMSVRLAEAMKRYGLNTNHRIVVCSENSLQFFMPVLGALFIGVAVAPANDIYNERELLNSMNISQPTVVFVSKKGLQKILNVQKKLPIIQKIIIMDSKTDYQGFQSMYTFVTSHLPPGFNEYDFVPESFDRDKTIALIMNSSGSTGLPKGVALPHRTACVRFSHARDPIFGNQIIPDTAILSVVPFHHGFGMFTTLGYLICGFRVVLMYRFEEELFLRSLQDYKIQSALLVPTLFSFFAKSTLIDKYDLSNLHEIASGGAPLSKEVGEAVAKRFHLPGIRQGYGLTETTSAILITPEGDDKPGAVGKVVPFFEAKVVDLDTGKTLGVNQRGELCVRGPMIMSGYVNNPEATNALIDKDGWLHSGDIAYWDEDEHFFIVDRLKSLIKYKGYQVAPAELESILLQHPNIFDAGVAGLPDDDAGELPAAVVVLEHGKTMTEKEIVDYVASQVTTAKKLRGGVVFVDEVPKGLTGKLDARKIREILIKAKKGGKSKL
Sequence of Luciferase (P08659 whole entry): as above

CN(C)c1ccc(-c2nc3cc(NC(=O)Cn4cc5ccccc5n4)ccc3[nH]2)cc1 [QHL-24, N-(2-(4-(dimethylamino)phenyl)-1H-benzo[d]imidazol-5-yl)-2-(2H-indazol-2-yl)acetamide]
IC50 (SurA [1]): 3.55 µM
Primary assay (P1) % Effect (SurA [1]; ELF library screen, 1536-well): 151%
Primary assay (P1) Z-score (SurA [1]; ELF library screen, 1536-well): 191.97
LipE (SurA [1]; listed under calculated properties): 1.39
IC50 (firefly Luciferase): 38 µM
Deselection (D1) plC50 (firefly Luciferase; Luciferase interference, 7 concentration steps 20 µM to 27.4 nM): 4.42
Re-evaluation (Tuebingen) nanoDSF (Tycho) Ti#1 (SurA [2]): none
Re-evaluation (Tuebingen) nanoDSF (Tycho) Ti#2 (SurA [2]): +
Kd (SurA [3]): 0.02 to 0.03 mM
Re-evaluation (Tuebingen) MST score (SurA [3]; re-evaluation of QHL compound remainders): inconclusive
Kd (SurA [3]; read-out: MST (Kd in mM)): 0.02 to 0.03 mM
SurA inhibition in the Luciferase-based SurA activity assay (in words) (SurA [4]): very high SurA inhibition
Primary Assay ICmax (SurA [4]; concentration of maximum SurA inhibition, dose response up to 250 µM, resynthesized/repurchased compounds): 5 to 10 µM
primary assay SurA (SurA [4]; influence on SurA): +
MIC (E. coli ATCC 25922): < 256 µg/mL
thermal stability of SurA as detected by nanoDSF (in words) (SurA [5]): affected the thermal stability of SurA
nanoDSF pH 7.4 Ti#1 (SurA [5]; 40 mM HEPES pH 7.4, 150 NaCl): none
nanoDSF pH 7.4 Ti#2 (SurA [5]; 40 mM HEPES pH 7.4, 150 NaCl): -
nanoDSF pH 5 Ti#1 (SurA [5]; 50 mM HAc pH 5): none
nanoDSF pH 5 Ti#2 (SurA [5]; 50 mM HAc pH 5): +
solubility (in words) [6]: poor solubility
CytoTox (observation in the well) (HepG2 cells): precipitate
CytoTox (HepG2 cells; LDH release, 1 h at 37°C): 7.87%
primary assay Luciferase (Luciferase): -
